Reference: PubChem BioAssay (NCI)
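Protocol summary: plate cells (96-well), add compound at 5 concentrations, incubate 48 h, interpolate endpoints linearly. GI50: concentration for 50% inhibition of growth. TGI: total growth inhibition.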

What was measured:
Assay in all cases: NCI tumour cell line growth inhibition, 48 h
EKVX NSCLC = test system: EKVX NSCLC
ACHN renal = test system: ACHN renal
DMS 114 small cell lung = test system: DMS 114 small cell lung
UACC-257 melanoma = test system: UACC-257 melanoma
SK-MEL-28 melanoma = test system: SK-MEL-28 melanoma
LOX IMVI melanoma = test system: LOX IMVI melanoma
SNB-75 CNS = test system: SNB-75 CNS
A549 NSCLC = test system: A549 NSCLC
SK-OV-3 ovarian = test system: SK-OV-3 ovarian
HL-60(TB) leukemia = test system: HL-60(TB) leukemia
NCI-H23 lung = test system: NCI-H23 lung
U251 CNS = test system: U251 CNS
SF-295 CNS = test system: SF-295 CNS
OVCAR-5 ovarian = test system: OVCAR-5 ovarian
SK-MEL-2 melanoma = test system: SK-MEL-2 melanoma
M14 melanoma = test system: M14 melanoma
NCI-H460 lung = test system: NCI-H460 lung
IGROV1 ovarian = test system: IGROV1 ovarian
MOLT-4 leukemia = test system: MOLT-4 leukemia
HOP-62 NSCLC = test system: HOP-62 NSCLC
MALME-3M melanoma = test system: MALME-3M melanoma
SNB-19 CNS = test system: SNB-19 CNS
A498 renal = test system: A498 renal
CAKI-1 renal = test system: CAKI-1 renal
NCI-H226 lung = test system: NCI-H226 lung
K-562 leukemia = test system: K-562 leukemia
SN12C renal = test system: SN12C renal
CCRF-CEM leukemia = test system: CCRF-CEM leukemia
DLD-1 colon = test system: DLD-1 colon
M19-MEL melanoma = test system: M19-MEL melanoma
HCT-116 colon = test system: HCT-116 colon
HT29 colon = test system: HT29 colon
UO-31 renal = test system: UO-31 renal
KM12 colon = test system: KM12 colon
UACC-62 melanoma = test system: UACC-62 melanoma
SNB-78 CNS = test system: SNB-78 CNS
OVCAR-4 ovarian = test system: OVCAR-4 ovarian
HCT-15 colon = test system: HCT-15 colon
OVCAR-8 ovarian = test system: OVCAR-8 ovarian
COLO 205 colon = test system: COLO 205 colon
HOP-18 NSCLC = test system: HOP-18 NSCLC
786-0 renal = test system: 786-0 renal
HCC-2998 colon = test system: HCC-2998 colon
HOP-92 NSCLC = test system: HOP-92 NSCLC
DMS 273 small cell lung = test system: DMS 273 small cell lung
RXF 393 renal = test system: RXF 393 renal
TK-10 renal = test system: TK-10 renal
OVCAR-3 ovarian = test system: OVCAR-3 ovarian
SF-268 CNS = test system: SF-268 CNS
SW-620 colon = test system: SW-620 colon
SK-MEL-5 melanoma = test system: SK-MEL-5 melanoma
SF-539 CNS = test system: SF-539 CNS
KM20L2 colon = test system: KM20L2 colon
NCI-H522 lung = test system: NCI-H522 lung
RPMI-8226 leukemia = test system: RPMI-8226 leukemia
LXFL 529 NSCLC = test system: LXFL 529 NSCLC
XF 498 CNS = test system: XF 498 CNS
SR leukemia = test system: SR leukemia

## COc1cccc(C2SCc3nc4ccccc4n32)c1 (configuration not stated)
EKVX NSCLC
  TGI: > 100 µM
ACHN renal
  TGI: > 100 µM
DMS 114 small cell lung
  TGI: > 100 µM
UACC-257 melanoma
  TGI: > 100 µM
SK-MEL-28 melanoma
  TGI: > 100 µM
LOX IMVI melanoma
  TGI: > 100 µM
SNB-75 CNS
  TGI: > 100 µM
A549 NSCLC
  TGI: > 100 µM
SK-OV-3 ovarian
  TGI: > 100 µM
HL-60(TB) leukemia
  TGI: > 100 µM
NCI-H23 lung
  TGI: > 100 µM
U251 CNS
  TGI: > 100 µM
SF-295 CNS
  TGI: > 100 µM
OVCAR-5 ovarian
  TGI: > 100 µM
SK-MEL-2 melanoma
  TGI: > 100 µM
M14 melanoma
  TGI: > 100 µM
NCI-H460 lung
  TGI: > 100 µM
IGROV1 ovarian
  TGI: > 100 µM
MOLT-4 leukemia
  TGI: > 100 µM
HOP-62 NSCLC
  TGI: > 100 µM
MALME-3M melanoma
  TGI: > 100 µM
SNB-19 CNS
  TGI: > 100 µM
A498 renal
  TGI: > 100 µM
CAKI-1 renal
  TGI: > 100 µM
NCI-H226 lung
  TGI: > 100 µM
K-562 leukemia
  TGI: > 100 µM
SN12C renal
  TGI: > 100 µM
CCRF-CEM leukemia
  TGI: > 100 µM
DLD-1 colon
  TGI: > 100 µM
M19-MEL melanoma
  TGI: > 100 µM
HCT-116 colon
  TGI: > 100 µM
HT29 colon
  TGI: > 100 µM
UO-31 renal
  TGI: 95.7 µM
KM12 colon
  TGI: > 100 µM
UACC-62 melanoma
  TGI: > 100 µM
SNB-78 CNS
  TGI: > 100 µM
OVCAR-4 ovarian
  TGI: > 100 µM
HCT-15 colon
  TGI: > 100 µM
OVCAR-8 ovarian
  TGI: > 100 µM
COLO 205 colon
  TGI: > 100 µM
HOP-18 NSCLC
  TGI: > 100 µM
786-0 renal
  TGI: > 100 µM
HCC-2998 colon
  TGI: > 100 µM
HOP-92 NSCLC
  TGI: 69.8 µM
DMS 273 small cell lung
  TGI: > 100 µM
RXF 393 renal
  TGI: > 100 µM
TK-10 renal
  TGI: 55.1 µM
OVCAR-3 ovarian
  TGI: > 100 µM
SF-268 CNS
  TGI: > 100 µM
SW-620 colon
  TGI: > 100 µM
SK-MEL-5 melanoma
  TGI: 65.7 µM
SF-539 CNS
  TGI: > 100 µM

## O=C([CH-]C(=O)c1ccccc1)c1ccccc1.O=C([CH-]C(=O)c1ccccc1)c1ccccc1.O=C([CH-]C(=O)c1ccccc1)c1ccccc1.[Cl-].[Hf+4]
EKVX NSCLC
  GI50: 24.8 µM
  TGI: 77.2 µM
ACHN renal
  GI50: 33.9 µM
  TGI: > 100 µM
UACC-257 melanoma
  GI50: 22.2 µM
  TGI: 69.5 µM
SK-MEL-28 melanoma
  GI50: 20.3 µM
  TGI: 82.5 µM
LOX IMVI melanoma
  GI50: 23.3 µM
  TGI: > 100 µM
SNB-75 CNS
  GI50: 9.43 µM
  TGI: > 100 µM
A549 NSCLC
  GI50: 16.7 µM
  TGI: 86.2 µM
SK-OV-3 ovarian
  GI50: 22.7 µM
  TGI: 62.3 µM
HL-60(TB) leukemia
  GI50: 18.1 µM
  TGI: > 100 µM
NCI-H23 lung
  GI50: 15.8 µM
  TGI: 83.4 µM
U251 CNS
  GI50: 19.1 µM
  TGI: > 100 µM
SF-295 CNS
  GI50: 14.9 µM
  TGI: > 100 µM
OVCAR-5 ovarian
  GI50: 30.8 µM
  TGI: > 100 µM
M14 melanoma
  GI50: 13.5 µM
  TGI: 32.9 µM
NCI-H460 lung
  GI50: 13.1 µM
  TGI: 67.7 µM
IGROV1 ovarian
  GI50: 33.3 µM
  TGI: > 100 µM
MOLT-4 leukemia
  GI50: 11.1 µM
  TGI: > 100 µM
SNB-19 CNS
  GI50: 14.1 µM
  TGI: > 100 µM
A498 renal
  GI50: 18.6 µM
  TGI: 63 µM
KM20L2 colon
  GI50: 34.2 µM
  TGI: > 100 µM
CAKI-1 renal
  GI50: 14.2 µM
  TGI: 52.4 µM
NCI-H226 lung
  GI50: 13 µM
  TGI: 54 µM
K-562 leukemia
  GI50: 7.11 µM
  TGI: > 100 µM
SN12C renal
  GI50: 41.3 µM
  TGI: > 100 µM
NCI-H522 lung
  GI50: 12.6 µM
  TGI: 62.8 µM
HCT-116 colon
  GI50: 7.33 µM
  TGI: 26.1 µM
HT29 colon
  GI50: 33.9 µM
  TGI: > 100 µM
UO-31 renal
  GI50: 26.8 µM
  TGI: 96.9 µM
RPMI-8226 leukemia
  GI50: 13.5 µM
  TGI: 82.1 µM
KM12 colon
  GI50: 21.1 µM
  TGI: > 100 µM
UACC-62 melanoma
  GI50: 14.6 µM
  TGI: > 100 µM
OVCAR-4 ovarian
  GI50: 14.6 µM
  TGI: > 100 µM
HCT-15 colon
  GI50: 12.5 µM
  TGI: > 100 µM
OVCAR-8 ovarian
  GI50: 11.5 µM
  TGI: 77.7 µM
COLO 205 colon
  GI50: 23.9 µM
  TGI: > 100 µM
HOP-18 NSCLC
  GI50: 5.66 µM
  TGI: 24.8 µM
HOP-92 NSCLC
  GI50: 10.9 µM
  TGI: 36.1 µM
RXF 393 renal
  GI50: 7.68 µM
  TGI: 23.2 µM
TK-10 renal
  GI50: 18.7 µM
  TGI: 53.8 µM
OVCAR-3 ovarian
  GI50: 15.2 µM
  TGI: > 100 µM
SF-268 CNS
  GI50: 26.4 µM
  TGI: > 100 µM
SW-620 colon
  GI50: 10.8 µM
  TGI: > 100 µM
SK-MEL-5 melanoma
  GI50: 11.1 µM
  TGI: 31.5 µM
SF-539 CNS
  GI50: 17.2 µM
  TGI: 41.8 µM

## CCCCCCCCCCCCCCCCCC(=O)OCC1OC(OC)C(NC(=O)N(CCCl)N=O)C(O)C1O (configuration not stated)
ACHN renal
  TGI: 47.3 µM
UACC-257 melanoma
  TGI: 39.4 µM
SK-MEL-28 melanoma
  TGI: 53.1 µM
LOX IMVI melanoma
  TGI: 31.8 µM
SNB-75 CNS
  TGI: 41.6 µM
A549 NSCLC
  TGI: 52.1 µM
NCI-H23 lung
  TGI: 43 µM
SF-295 CNS
  TGI: 32.6 µM
OVCAR-5 ovarian
  TGI: > 100 µM
SK-MEL-2 melanoma
  TGI: > 100 µM
LXFL 529 NSCLC
  TGI: 37.5 µM
M14 melanoma
  TGI: > 100 µM
NCI-H460 lung
  TGI: 33.5 µM
IGROV1 ovarian
  TGI: > 100 µM
MOLT-4 leukemia
  TGI: 57.3 µM
HOP-62 NSCLC
  TGI: > 100 µM
MALME-3M melanoma
  TGI: 78.3 µM
SNB-19 CNS
  TGI: > 100 µM
CAKI-1 renal
  TGI: > 100 µM
NCI-H226 lung
  TGI: 86.8 µM
K-562 leukemia
  TGI: > 100 µM
SN12C renal
  TGI: 30.3 µM
NCI-H522 lung
  TGI: 38.3 µM
DLD-1 colon
  TGI: > 100 µM
M19-MEL melanoma
  TGI: > 100 µM
HT29 colon
  TGI: 63.6 µM
UO-31 renal
  TGI: 56.8 µM
RPMI-8226 leukemia
  TGI: 85.8 µM
KM12 colon
  TGI: 67.9 µM
UACC-62 melanoma
  TGI: 23.3 µM
SNB-78 CNS
  TGI: > 100 µM
OVCAR-4 ovarian
  TGI: 76.1 µM
HCT-15 colon
  TGI: > 100 µM
OVCAR-8 ovarian
  TGI: > 100 µM
COLO 205 colon
  TGI: > 100 µM
HOP-18 NSCLC
  TGI: > 100 µM
HCC-2998 colon
  TGI: > 100 µM
DMS 273 small cell lung
  TGI: 56.9 µM
RXF 393 renal
  TGI: 32.1 µM
TK-10 renal
  TGI: > 100 µM
OVCAR-3 ovarian
  TGI: 65.6 µM
XF 498 CNS
  TGI: 44 µM
SF-268 CNS
  TGI: 26.7 µM
SW-620 colon
  TGI: 47.8 µM
SR leukemia
  TGI: > 100 µM
SK-MEL-5 melanoma
  TGI: > 100 µM
SF-539 CNS
  TGI: 24.2 µM
